Source: patent US20220088017A1, “COMPOSITIONS AND METHODS FOR TREATING VIRAL INFECTIONS” (priority 2020, published 2022)

Test system: coronavirus (COVID-19)
Experiment: Observational case: older coronavirus contact with impending right heart failure treated with statin
Type: in vivo
Conditions: person
Description: An older person developed signs and symptoms of vascular inflammation and right heart failure. This included occasional headaches, flashes in vision, general fatigue, irritability, muscle pains, epigastric pain, general abdominal distention, inability to eat and circulatory congestion, salty or blood taste in sputum. […] The impending right heart failure was thought to be secondary to myocarditis, circulatory congestion due to poor blood flow as a result of vascular inflammation and sticky walls of blood vessels. The contact was within 6 hours having intermittent chest pains, sweating, and dizziness. Cardiac arrest was thought to be a possible poor outcome leading to mortality. The medical team discussed interventions necessary with statins, with the intention of reducing blood sticking to blood vessels. […] The patient commenced treatment immediately with good results in 3 days' time. The abdominal swelling which was A sign of right heart failure subsided, abdominal pain reduced and the patient was able to eat with circulatory congestion eased.

[1] = 20 mg daily, with OMEGA 3 based vitamin oil

SMILES: CC(C)c1nc(N(C)S(C)(=O)=O)nc(-c2ccc(F)cc2)c1/C=C/[C@@H](O)C[C@@H](O)CC(=O)O [rosuvastatin]
- right heart failure outcome (coronavirus contact, 20 mg daily for two weeks, concomitantly with OMEGA 3 based vitamin oil daily): prevented this patient from going into right heart failure
- circulation (coronavirus contact, 20 mg daily for two weeks, with OMEGA 3 based vitamin oil): restored circulation
- abdominal swelling (sign of right heart failure) [1]: subsided
- time to good results after start of treatment [1]: 3 days
